# In PubChem BioAssay (NCI):
# Where “and” joins values, the source holds several entries; their conditions need not be identical. Equal entries are not always repeated.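 Interpolation was linear, between the two tested concentrations surrounding the appropriate level; five concentrations were tested over 48 hours in 96-well plates. Abbreviation: GI50, concentration required for 50% inhibition of growth. The concentration for full growth arrest is given as TGI.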
# Legend:
# Experiment in all cases: DTP human tumour cell line panel, 48 h
# [1] = system: 786-0 renal
# [2] = system: A498 renal
# [3] = system: A549 NSCLC
# [4] = system: ACHN renal
# [5] = system: BT-549 breast
# [6] = system: CAKI-1 renal
# [7] = system: CCRF-CEM leukemia
# [8] = system: COLO 205 colon
# [9] = system: DU-145 prostate
# [10] = system: EKVX NSCLC
# [11] = system: HCC-2998 colon
# [12] = system: HCT-116 colon
# [13] = system: HCT-15 colon
# [14] = system: HL-60(TB) leukemia
# [15] = system: HOP-62 NSCLC
# [16] = system: HOP-92 NSCLC
# [17] = system: HS 578T breast
# [18] = system: HT29 colon
# [19] = system: IGROV1 ovarian
# [20] = system: K-562 leukemia
# [21] = system: KM12 colon
# [22] = system: LOX IMVI melanoma
# [23] = system: M14 melanoma
# [24] = system: MALME-3M melanoma
# [25] = system: MCF7 breast
# [26] = system: MDA-MB-231 breast
# [27] = system: MDA-MB-435
# [28] = system: MDA-N
# [29] = system: MOLT-4 leukemia
# [30] = system: NCI-H226 lung
# [31] = system: NCI-H23 lung
# [32] = system: NCI-H460 lung
# [33] = system: NCI-H522 lung
# [34] = system: NCI/ADR-RES ovarian
# [35] = system: OVCAR-3 ovarian
# [36] = system: OVCAR-4 ovarian
# [37] = system: OVCAR-5 ovarian
# [38] = system: OVCAR-8 ovarian
# [39] = system: PC-3 prostate
# [40] = system: RPMI-8226 leukemia
# [41] = system: RXF 393 renal
# [42] = system: SF-268 CNS
# [43] = system: SF-295 CNS
# [44] = system: SF-539 CNS
# [45] = system: SK-MEL-2 melanoma
# [46] = system: SK-MEL-28 melanoma
# [47] = system: SK-OV-3 ovarian
# [48] = system: SN12C renal
# [49] = system: SNB-19 CNS
# [50] = system: SNB-75 CNS
# [51] = system: SR leukemia
# [52] = system: SW-620 colon
# [53] = system: T-47D breast
# [54] = system: TK-10 renal
# [55] = system: U251 CNS
# [56] = system: UACC-257 melanoma
# [57] = system: UACC-62 melanoma
# [58] = system: UO-31 renal
smiles,measurement,setting,value
Clc1ccc(COC(Cn2ccnc2)c2ccc(Cl)cc2Cl)c(Cl)c1 (stereo not drawn),GI50,[1],4.2 µM
same,TGI,[1],14.5 µM and 21 µM and 22.9 µM
same,TGI,[2],17.6 µM and 27.3 µM and 19.6 µM
same,GI50,[3],3.87 µM
same,TGI,[3],15.5 µM and 23.8 µM and 23.2 µM
same,GI50,[4],4.51 µM
same,TGI,[4],16.1 µM and 30.1 µM and 24.6 µM
same,GI50,[5],4.7 µM
same,TGI,[5],16 µM and 30.4 µM
same,GI50,[6],3.18 µM
same,TGI,[6],12.9 µM and 26.8 µM and 23.4 µM
same,GI50,[7],4.55 µM
same,TGI,[7],21.2 µM and 24.8 µM and 19.8 µM
same,GI50,[8],1.62 µM and 10.1 µM and 3.78 µM
same,TGI,[8],3.18 µM and 22.1 µM and 16.1 µM
same,GI50,[9],11.3 µM
same,TGI,[9],23.5 µM and 29.6 µM and 25.6 µM
same,GI50,[10],5.64 µM
same,TGI,[10],18.4 µM and 29.1 µM and 23.1 µM
same,GI50,[11],3.78 µM
same,TGI,[11],14.9 µM and 35.6 µM and 26.3 µM
same,GI50,[12],2.87 µM
same,TGI,[12],11.3 µM and 18.4 µM and 17.7 µM
same,GI50,[13],3.94 µM
same,TGI,[13],14.6 µM and 24.8 µM and 26.6 µM
same,GI50,[14],2.34 µM
same,TGI,[14],6.21 µM and 17 µM and 7.02 µM
same,GI50,[15],2.07 µM
same,TGI,[15],5.73 µM and 27.2 µM and 26.6 µM
same,GI50,[16],1.74 µM
same,TGI,[16],8.44 µM and 27.1 µM
same,GI50,[17],5.49 µM
same,TGI,[17],24 µM and 32 µM
same,GI50,[18],3.55 µM and 7.53 µM and 3.17 µM
same,TGI,[18],15.4 µM and 21.1 µM and 15.5 µM
same,GI50,[19],3.59 µM and 10.6 µM and 1.37 µM
same,TGI,[19],15 µM and 24.7 µM and 10.9 µM
same,TGI,[20],21.2 µM and 16.4 µM
same,GI50,[21],4.36 µM
same,TGI,[21],15.5 µM and 26.4 µM and 28.8 µM
same,GI50,[22],3.51 µM
same,TGI,[22],16.2 µM and 34.3 µM and 24.8 µM
same,GI50,[23],3.73 µM
same,TGI,[23],14.1 µM and 26.6 µM and 22.4 µM
same,GI50,[24],4.52 µM
same,TGI,[24],17.1 µM and 29.6 µM and 25.1 µM
same,GI50,[25],3.57 µM
same,TGI,[25],12.4 µM and 27.8 µM and 33.3 µM
same,GI50,[26],2.15 µM
same,TGI,[26],12.9 µM and 26.2 µM and 24.6 µM
same,GI50,[27],2.39 µM
same,TGI,[27],6.89 µM and 13 µM and 9.97 µM
same,TGI,[28],17.5 µM and 15.6 µM
same,TGI,[29],15.1 µM and 22.2 µM and 13.9 µM
same,GI50,[30],1.55 µM and 4.44 µM and 9.24 µM
same,TGI,[30],3.31 µM and 23.2 µM and 24.2 µM
same,GI50,[31],3.03 µM
same,TGI,[31],14.6 µM and 25.8 µM and 22.4 µM
same,GI50,[32],4.38 µM
same,TGI,[32],19.3 µM and > 100 µM and 35 µM
same,TGI,[33],23.7 µM and 22.8 µM
same,GI50,[34],3.06 µM
same,TGI,[34],13.3 µM and 25.2 µM and 16 µM
same,GI50,[35],5.35 µM
same,TGI,[35],17.1 µM and 25 µM and 21.5 µM
same,GI50,[36],2.91 µM
same,TGI,[36],18.4 µM and 23.3 µM and 25.7 µM
same,GI50,[37],9.81 µM
same,TGI,[37],21.7 µM and 32.4 µM and 25.8 µM
same,GI50,[38],4.21 µM
same,TGI,[38],27.3 µM and 36.9 µM and 22.1 µM
same,GI50,[39],3.07 µM
same,TGI,[39],13.8 µM and 20.6 µM and 20.3 µM
same,GI50,[40],3.67 µM
same,TGI,[40],18.8 µM and 37.7 µM
same,GI50,[41],2.78 µM and 12.1 µM and 3.84 µM
same,TGI,[41],10.5 µM and 26 µM and 14.5 µM
same,GI50,[42],7.87 µM
same,TGI,[42],24.9 µM and 26.9 µM and 28.6 µM
same,GI50,[43],2.29 µM
same,TGI,[43],8.73 µM and 23.7 µM and 23.8 µM
same,TGI,[44],27.8 µM and 32.7 µM and 27.7 µM
same,TGI,[45],32.6 µM and 28.8 µM
same,GI50,[46],4.96 µM
same,TGI,[46],17.8 µM and 34.2 µM and 26 µM
same,GI50,[47],2.99 µM
same,TGI,[47],9.92 µM and 27.5 µM and 27.4 µM
same,GI50,[48],2.63 µM
same,TGI,[48],11.7 µM and 27.1 µM and 20.7 µM
same,GI50,[49],3.24 µM
same,TGI,[49],14.6 µM and 29.6 µM and 29.3 µM
same,TGI,[50],12.6 µM and 28.8 µM and 16.2 µM
same,GI50,[51],4.34 µM and 2.47 µM and 5.92 µM
same,TGI,[51],18.3 µM and 12.3 µM and 22.4 µM
same,GI50,[52],4.34 µM
same,TGI,[52],17.5 µM and 29.9 µM and 28.8 µM
same,GI50,[53],2 µM
same,TGI,[53],8.33 µM and 24.6 µM and 21.6 µM
same,GI50,[54],10.7 µM
same,TGI,[54],22.9 µM and 29.6 µM
same,GI50,[55],3.57 µM
same,TGI,[55],16.1 µM and 25.8 µM and 23.6 µM
same,GI50,[56],5.08 µM
same,TGI,[56],17.7 µM and 30.3 µM and 23.2 µM
same,GI50,[57],2.06 µM
same,TGI,[57],10.2 µM and 25 µM and 23.3 µM
same,GI50,[58],2.3 µM
same,TGI,[58],12.4 µM and 16.5 µM and 13.6 µM
